Non-standard residues stand in square brackets, D forms with d. pGlu = O=C1CC[C@@H](C(=O)O)N1 Bounds are passed on as bounds.

Here are results for two compounds from patent US20190248834A1, “ENDOMORPHIN-2, TETRAPEPTIDE DERIVATIVES THEREOF, AND USES THEREOF” (priority 2016, published 2019).

What all share (format): in vivo, human
The test system of test [1] is knee pain. Description: Example 32: analgesic effect on knee pain after housework, topical. The following applies: 1% (w/v) in WEP442, topical. The source says:
A subject with discomforting knee pain in the evening after cleaning their own house for several hours topically applied a composition containing 1% (w/v) of N-Ac-Tyr-Pro-Phe-Phe-NH2 (SEQ ID NO: 23) in WEP442.

A further test deals with intense headaches. Description: Example 33: analgesic effect on recurring headaches, topical. To be noted: 0.8% (w/v) in EP73, topical. On the procedure: A subject with intense headaches after several hours of using a computer in their work as a real estate agent, topically applied to the forehead and temporal areas a composition containing 0.8% (w/v) of N-Ac-Tyr-Pro-Phe-Phe-NH2 (SEQ ID NO: 23)0 in EP73, formulated as described in Example 2. […] Such headaches, occurring 1-2 times weekly, were treated in the same manner over a 2 month interval, with headache pain being relieved each time.

The test system of another test is tennis elbow pain. Description: Example 68: analgesic effect on tennis elbow pain, topical. The source says:
A person who played tennis recreationally for several decades developed increasingly severe pain in the elbow of their right arm. Two acupuncture treatments provided partial relief. […] They now play tennis with no pain.

The subject of test [2] is back neck pain after cervical implant. Description: Example 90: analgesic effect on post-surgery pain and discomfort, topical. The following applies: 1% (w/v) in WEP442, topical. The source says: A subject had painful discomfort of their back neck for 2 years caused by a surgical titanium implant of the 7th cervical vertebra 2 years earlier. During the past years, the pain and discomfort had been improved from occasional treatments with acupuncture and massage therapy. However, such treatments provided only short term relief of pain and discomfort, usually one or two pain free days after each treatment.
On one afternoon, pain and discomfort suddenly developed. The subject topically applied a composition containing 1% (w/v) of N-Ac-Tyr-Pro-Phe-Phe-NH2 (SEQ ID NO: 23) in WEP442 solution to skin of their back neck area. […] The subject was free of pain and discomfort for at least 12 hours (4+ effect).

Test [3] has as its system ordinary type of headache. Description: Example 11: analgesic effect on headache, topical. The following applies: 1% (w/v) in EP73, topical. The source says: A subject, developed an ordinary type of headache in the early afternoon. Such headaches usually would persist for several hours, being relieved incompletely by treatment with oral drugs, such as ibuprofen and/or acetaminophen. In this instance, they topically applied an anhydrous composition containing 1% (w/v) N-Ac-Tyr-Pro-Phe-Phe-NH2(SEQ ID NO: 23) in EP73 to the frontal and temporal areas.

Test [4] deals with traumatized right big toe. Nature of the test: Example 34: analgesic effect on pain in big toe following trauma, topical. The following applies: 1% (w/v) in WEP442, topical. As to the method: A subject, traumatized their right big toe while repositioning heavy furniture, and experienced disabling persistent pain of that toe. About 10 minutes after the trauma occurred, they topically applied a composition containing 1% (w/v) of N-Ac-Tyr-Pro-Phe-Phe-NH2 (SEQ ID NO: 23) in WEP442 to the toe.

The test system of test [5] is knee pain. Description: Example 42: analgesic effect on knee pain following twisting of leg, topical. The following applies: 1% (w/v) in WEP442, topical. The source says: A subject, twisted their left leg during work on building construction, causing substantial pain in the left knee. The pain persisted into the late evening, preventing them from falling asleep.
The test system of test [6] is chronic arthritic pain of left ankle. Nature of the test: Example 9: analgesic effect on ankle pain, topical. The source says:
A subject had chronic arthritic pain of their left ankle. They were previously treated with prescription corticosteroid injections.
The subject topically applied an anhydrous composition containing 0.5% (w/v) N-Ac-Tyr-Pro-Phe-Phe-NH2 (SEQ ID NO: 23) in EP73, formulated as described in Example 2, at bedtime. The next morning, they observed approximately 90% improvement of pain. The subject topically re-applied the same composition at bedtime. The following entire day, they had about 95% pain improvement.

The subject of another test is pharyngitis. Description: Example 64: analgesic effect on pharyngitis, oral. On the procedure: A subject developed a respiratory tract infection, symptoms of which included coughing and pharyngitis. Swallowing of saliva was very painful for the subject. […] A solution containing 0.5% (w/v) of N-Pg-Tyr-Pro-Phe-Phe-NH2 (SEQ ID NO: 44) in a mixture of propylene glycol (10 parts by volume) and glycerol (90 parts by volume) was prepared. One teaspoonful of the solution was held in the posterior part of the mouth for about one minute and then swallowed. […] Such relief of painful swallowing lasted for about 3 hours. Repeated administrations provided the same results.

A further test deals with headache. Nature of the test: Example 72: analgesic effect on migraine headache, topical. The following applies: 0.5% (w/v) in WEP442, topical. The source says: A subject who suffered from migraine headaches, woke up one morning with a headache, the type of which was uncertain. They topically applied to their forehead, periocular and temporal areas a composition containing 0.5% (w/v) of N-Pg-Tyr-Pro-Phe-Phe-NH2 (SEQ ID NO: 44) in WEP442.

In test [7] the test system is severe osteoarthritis of both knees. Description: Example 17: analgesic effect on osteoarthritic knees, sublingual powder. To be noted: powder 50 mg under the tongue. As to the method: A subject had severe osteoarthritis of both knees with pain, inflammation and edema for four years. The subject underwent prior therapy, including intra-articular injections of corticosteroids and hyaluronic acid as well as celecoxib (Celebrex), administered orally (200 mg) twice daily. Such therapy provided only mild transitory relief of knee pain and edema, and edema of the lower legs.
The subject administered N-Pg-Tyr-Pro-Phe-Phe-NH2 (SEQ ID NO: 44) powder (50 mg) under the tongue (sublingually), which dissolved in saliva and absorbed slowly for about 30 minutes. […] The analgesic effect lasted for about 2 hours. The analgesic effect was judged to be about 4+ by clinical evaluation.
Under the same conditions, N-Pa-Tyr-Pro-Phe-Phe-NH2 (SEQ ID NO: 64) powder provided an analgesic effect of about 3+ as judged by clinical evaluation. Also under the same conditions, N-Ac-Tyr-Pro-Phe-Phe-NH2 (SEQ ID NO: 23) powder provided an analgesic effect of about 3+ as judged by clinical evaluation. Repeated application of the tetrapeptide derivatives provided 4+ efficacy as judged by clinical evaluation.

Setting [8] is: 0.5% (w/v) in propylene glycol/glycerol, oral.

As to `CC(=O)N[C@@H](Cc1ccc(O)cc1)C(=O)N1CCC[C@H]1C(=O)N[C@@H](Cc1ccccc1)C(=O)N[C@@H](Cc1ccccc1)C(N)=O` [N-Ac-Tyr-Pro-Phe-Phe-NH2], the “duration of pain relief” value in the test on knee pain [1] fell in the range of 5 to 7 h. Besides, the pain relief entry in the test on knee pain [1] is “Total relief of pain”; with intense headaches it was “Complete headache relief”; in the test on tennis elbow pain (0.5% (w/v) in WEP442, topical) it was “substantial relief of pain”; in test [2], “the pain and discomfort disappeared”; in [3], “headache pain disappeared completely”; in test [4] it was “Complete relief of pain”. The pain relief entry in the test with knee pain [5] is “complete relief of pain”. In addition, the “time to pain relief” value is at most 1 min with knee pain [1]; at most 1 min in the test with intense headaches; 2 to 4 min in the test with tennis elbow pain (0.5% (w/v) in WEP442, topical); “about 5 minutes” in test [2]; “Within minutes” in [3]; 15 to 30 s in [4]. For the same compound, the “time to pain relief” value in the test on knee pain [5] is “less than 1 minute”. Besides, the “range of arm motion” value in the test on tennis elbow pain (0.5% (w/v) in WEP442, about 1 week of several applications daily) is “returned to normal”. Further, the analgesic effect grade in test [2] is reported as 4+ (4+ (90-100%): complete relief or eradication of pain for more than 4 hours). The “duration free of pain and discomfort” value in test [2] is “at least 12 hours”. The “duration of headache alleviation” value in [3] was 18 h. Moreover, the recurrence entry was “did not return” in [4]; “pain free the next morning and thereafter” in the test with knee pain [5]. In test [6] (0.5% (w/v) in EP73, re-applied at bedtime, following entire day), the pain improvement entry is on record as “about 95%”. Besides, in test [6] (0.5% (w/v) in EP73, topical at bedtime, next morning), the improvement of pain result is “approximately 90%”.
Take “N-Pg-Tyr-Pro-Phe-Phe-NH2 ([pGlu]YPFF-NH2; SMILES NC(=O)[C@H](Cc1ccccc1)NC(=O)[C@H](Cc1ccccc1)NC(=O)[C@@H]1CCCN1C(=O)[C@H](Cc1ccc(O)cc1)NC(=O)[C@@H]1CCC(=O)N1)”: the “relief of painful swallowing” value in the test on pharyngitis (0.5% (w/v) in propylene glycol/glycerol 10:90, one teaspoonful held in mouth and swallowed) is “swallowing of liquids and semi-solid food could be done without pharyngeal pain”. In the test with pharyngitis (setting [8]), the duration of relief result is given as “about 3 hours” and the time to relief is at most 10 min. Also, the headache relief entry with headache was “promptly relieved and did not return”. For the same compound, in test [7], the “analgesic effect by clinical evaluation” value is recorded as 4+ (4+ (90-100%): complete relief or eradication of pain for more than 4 hours), the “duration of analgesic effect” value is on record as “about 2 hours”, the pain relief result was “the pain disappeared” and the “time to pain relief” value is at most 20 min.
